Measured values as given in patent US20090018134A1, “Compounds - 945” (AstraZeneca AB, priority 2007, published 2009).
pIC50: −log10 of the molar value.

Target: T1, mTOR (Homo sapiens, UniProt P42345)
T1 construct: FLAG; made in house
Assay: In Vitro mTOR Kinase Assay (Echo), Test (a)(ii)
Assay type: biochemical
Details: table of enzyme assay Test (a)(ii); read-out: Test (a)(ii) IC50
Procedure, shortened: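 Enzyme: HEK293-expressed, FLAG-purified mTOR C-terminal fragment (aa 1362-2549). Rxn 2 h RT with biotinylated peptide, stopped with EDTA 50 mM/BSA/Tris pH 7.4. Detection: T389 phospho-antibody AlphaScreen, 680 nm excitation. IC50.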

T1 sequence (P42345 1362-2549): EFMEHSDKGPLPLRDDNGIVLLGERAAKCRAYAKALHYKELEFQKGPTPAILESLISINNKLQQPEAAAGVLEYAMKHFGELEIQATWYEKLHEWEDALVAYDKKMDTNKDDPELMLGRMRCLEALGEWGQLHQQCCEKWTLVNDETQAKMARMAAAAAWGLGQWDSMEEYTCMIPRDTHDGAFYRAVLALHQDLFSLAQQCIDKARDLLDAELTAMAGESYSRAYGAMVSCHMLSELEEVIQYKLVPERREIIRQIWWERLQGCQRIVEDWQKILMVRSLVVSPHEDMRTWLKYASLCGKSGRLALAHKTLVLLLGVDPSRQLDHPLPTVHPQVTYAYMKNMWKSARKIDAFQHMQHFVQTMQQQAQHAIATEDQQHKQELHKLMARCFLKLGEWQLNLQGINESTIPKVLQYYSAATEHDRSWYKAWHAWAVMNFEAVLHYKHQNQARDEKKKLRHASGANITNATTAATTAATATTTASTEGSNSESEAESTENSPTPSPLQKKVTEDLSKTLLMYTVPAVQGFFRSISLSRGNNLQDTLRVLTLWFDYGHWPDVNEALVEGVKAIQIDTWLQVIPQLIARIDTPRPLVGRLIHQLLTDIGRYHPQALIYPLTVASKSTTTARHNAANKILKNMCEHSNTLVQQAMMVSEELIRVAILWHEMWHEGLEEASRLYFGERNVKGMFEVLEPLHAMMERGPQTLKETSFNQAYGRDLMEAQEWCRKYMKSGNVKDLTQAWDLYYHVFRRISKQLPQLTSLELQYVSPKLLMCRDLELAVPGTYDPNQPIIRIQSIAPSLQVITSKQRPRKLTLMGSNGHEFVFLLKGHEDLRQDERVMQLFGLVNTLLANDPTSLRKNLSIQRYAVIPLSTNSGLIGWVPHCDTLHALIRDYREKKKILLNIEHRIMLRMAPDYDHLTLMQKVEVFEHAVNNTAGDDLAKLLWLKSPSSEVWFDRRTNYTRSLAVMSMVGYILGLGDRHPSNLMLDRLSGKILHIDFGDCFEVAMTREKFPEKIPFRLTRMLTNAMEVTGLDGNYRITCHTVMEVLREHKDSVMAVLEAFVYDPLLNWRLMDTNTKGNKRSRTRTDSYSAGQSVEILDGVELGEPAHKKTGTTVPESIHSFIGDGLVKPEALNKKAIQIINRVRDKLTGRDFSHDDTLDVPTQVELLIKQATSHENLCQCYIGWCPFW

Row | SMILES | pIC50
1 | O=C(Nc1ccc(-c2nc(N3CCOCC3)cc(C3(S(=O)(=O)c4ccccn4)CC3)n2)cc1)NC1CC1 [Example 56, 3-Cyclopropyl-1-[4-[4-morpholin-4-yl-6-(1-Pyridin-2-ylsulfonylcyclopropyl)pyrimidin-2-yl]phenyl]urea] | 8.64
2 | CCNC(=O)Nc1ccc(-c2nc(N3CCOCC3)cc(C3(S(=O)(=O)c4ccccn4)CC3)n2)cc1 [Example 56b, 3-ethyl-1-[4-[4-morpholin-4-yl-6-(1-pyridin-2-ylsulfonylcyclopropyl)pyrimidin-2-yl]phenyl]urea] | 8.78
3 | Cn1cc(NC(=O)Nc2ccc(-c3nc(N4CCOCC4)cc(C4(S(=O)(=O)c5ccccn5)CC4)n3)cc2)cn1 [Example 56d, 3-(1-methylpyrazol-4-yl)-1-[4-[4-morpholin-4-yl-6-(1-pyridin-2-ylsulfonylcyclopropyl)pyrimidin-2-yl]phenyl]urea] | 8.37
4 | C[C@H]1COCCN1c1cc(C2(S(=O)(=O)c3ccc(F)cc3F)CC2)nc(-c2ccc(NC(=O)NC3CC3)cc2)n1 [Example 57a, 3-cyclopropyl-1-[4-[4-[1-(2,4-difluorophenyl)sulfonylcyclopro-pyl]-6-[(3S)-3-methylmorpholin-4-yl]pyrimidin-2-yl]phenyl]urea] | 7.98
5 | C[C@H]1COCCN1c1cc(C2(S(=O)(=O)c3ccc(F)cc3F)CC2)nc(-c2ccc(NC(=O)NCCF)cc2)n1 [Example 57c, 1-[4-[4-[1-(2,4-difluorophenyl)sulfonylcyclopro-pyl]-6-[(3S)-3-methylmorpholin-4-yl]pyrimidin-2-yl]phenyl]-3-(2-fluoroethyl)urea] | 8.16
6 | C[C@H]1COCCN1c1cc(C2(S(=O)(=O)c3ccc(F)cc3F)CC2)nc(-c2ccc(NC(=O)NCC3(O)CC3)cc2)n1 [Example 57g, 1-[4-[4-[1-(2,4-difluorophenyl)sulfonylcyclopro-pyl]-6-[(3S)-3-methylmorpholin-4-yl]pyrimidin-2-yl]phenyl]-3-[(1-hydroxycyclopropyl)methyl]urea] | 7.23
7 | C[C@H]1COCCN1c1cc(C2(S(=O)(=O)c3ccccc3F)CC2)nc(-c2ccc(NC(=O)NC3CC3)cc2)n1 [Example 58a, 3-cyclopropyl-1-[4-[4-[1-(2-fluorophenyl)sulfonylcyclopropyl]-6-[(3S)-3-methylmorpholin-4-yl]pyrimidin-2-yl]phenyl]urea] | 8.47
8 | C[C@H]1COCCN1c1cc(C2(S(=O)(=O)c3ccccc3F)CC2)nc(-c2ccc(NC(=O)NCCF)cc2)n1 [Example 58c, 3-(2-fluoroethyl)-1-[4-[4-[1-(2-fluorophenyl)sulfonylcyclopropyl]-6-[(3S)-3-methylmorpholin-4-yl]pyrimidin-2-yl]phenyl]urea] | 8.49
9 | C[C@H]1COCCN1c1cc(C2(S(=O)(=O)c3ccccc3F)CC2)nc(-c2ccc(NC(=O)NCC(F)F)cc2)n1 [Example 58d, 3-(2,2-difluoroethyl)-1-[4-[4-[1-(2-fluorophenyl)sulfonylcyclopropyl]-6-[(3S)-3-methylmorpholin-4-yl]pyrimidin-2-yl]phenyl]urea] | 8.53
10 | C[C@H]1COCCN1c1cc(C2(S(=O)(=O)c3ccccc3F)CC2)nc(-c2ccc(NC(=O)Nc3cnn(C)c3)cc2)n1 [Example 58f, 1-[4-[4-[1-(2-fluorophenyl)sulfonylcyclopropyl]-6-[(3S)-3-methylmorpholin-4-yl]pyrimidin-2-yl]phenyl]-3-(1-methylpyrazol-4-yl)urea] | 8.57
11 | CNC(=O)Nc1ccc(-c2nc(N3CCOC[C@@H]3C)cc(C3(S(=O)(=O)c4c(C)noc4C)CC3)n2)cc1 [Example 59] | 8.05
12 | Cc1noc(C)c1S(=O)(=O)C1(c2cc(N3CCOC[C@@H]3C)nc(-c3ccc(NC(=O)NC4CC4)cc3)n2)CC1 [Example 59a, 3-cyclopropyl-1-[4-[4-[1-[(3,5-dimethyl-1,2-oxazol-4-yl)sulfonyl]cyclopropyl]-6-[(3S)-3-methylmorpholin-4-yl]pyrimidin-2-yl]phenyl]urea] | 7.65

Second part, the compound after the results:

Row | pIC50 | SMILES
13 | 8.65 | CNC(=O)Nc1ccc(-c2nc(N3CCOCC3)cc(C3(S(=O)(=O)c4ccccn4)CC3)n2)cc1 [Example 56a, 3-methyl-1-[4-[4-morpholin-4-yl-6-(1-pyridin-2-ylsulfonylcyclopropyl)pyrimidin-2-yl]phenyl]urea]
14 | 8.21 | O=C(NCCO)Nc1ccc(-c2nc(N3CCOCC3)cc(C3(S(=O)(=O)c4ccccn4)CC3)n2)cc1 [Example 56c, 3-(2-hydroxyethyl)-1-[4-[4-morpholin-4-yl-6-(1-pyridin-2-ylsulfonylcyclopropyl)pyrimidin-2-yl]phenyl]urea]
15 | 7.92 | CNC(=O)Nc1ccc(-c2nc(N3CCOC[C@@H]3C)cc(C3(S(=O)(=O)c4ccc(NC)cc4F)CC3)n2)cc1 [Example 57, 1-[4-[4-[1-(2-Fluoro-4-methylaminophenyl)sulfonylcyclopropyl]-6-[(3S)-3-methylmorpholin-4-yl]pyrimidin-2-yl]phenyl]-3-methylurea]
16 | 8.14 | CCNC(=O)Nc1ccc(-c2nc(N3CCOC[C@@H]3C)cc(C3(S(=O)(=O)c4ccc(F)cc4F)CC3)n2)cc1 [Example 57e, 3-[4-[4-[1-(2,4-difluorophenyl)sulfonylcyclopro-pyl]-6-[(3S)-3-methylmorpholin-4-yl]pyrimidin-2-yl]phenyl]-1-ethylurea]
17 | 7.97 | C[C@H]1COCCN1c1cc(C2(S(=O)(=O)c3ccc(F)cc3F)CC2)nc(-c2ccc(NC(=O)Nc3cnn(C)c3)cc2)n1 [Example 57f, 1-[4-[4-[1-(2,4-difluorophenyl)sulfonylcyclopro-pyl]-6-[(3S)-3-methylmorpholin-4-yl]pyrimidin-2-yl]phenyl]-3-(1-methylpyrazol-4-yl)urea]
18 | 8.94 | CNC(=O)Nc1ccc(-c2nc(N3CCOC[C@@H]3C)cc(C3(S(=O)(=O)c4ccccc4F)CC3)n2)cc1 [Example 58, 1-[4-[4-[1-(2-Fluorophenyl)sulfonylcyclopropyl]-6-[(3S)-3-methylmorpholin-4-yl]pyrimidin-2-yl]phenyl]-3-methylurea]
19 | 8.70 | C[C@H]1COCCN1c1cc(C2(S(=O)(=O)c3ccccc3F)CC2)nc(-c2ccc(NC(=O)NCCO)cc2)n1 [Example 58b, 1-[4-[4-[1-(2-fluorophenyl)sulfonylcyclopropyl]-6-[(3S)-3-methylmorpholin-4-yl]pyrimidin-2-yl]phenyl]-3-(2-hydroxyethyl)urea]
20 | 8.59 | CCNC(=O)Nc1ccc(-c2nc(N3CCOC[C@@H]3C)cc(C3(S(=O)(=O)c4ccccc4F)CC3)n2)cc1 [Example 58e, 1-ethyl-3-[4-[4-[1-(2-fluorophenyl)sulfonylcyclopropyl]-6-[(3S)-3-methylmorpholin-4-yl]pyrimidin-2-yl]phenyl]urea]
21 | 7.99 | C[C@H]1COCCN1c1cc(C2(S(=O)(=O)c3ccccc3F)CC2)nc(-c2ccc(NC(=O)NCC3(O)CC3)cc2)n1 [Example 58g, 1-[4-[4-[1-(2-fluorophenyl)sulfonylcyclopropyl]-6-[(3S)-3-methylmorpholin-4-yl]pyrimidin-2-yl]phenyl]-3-[(1-hydroxycyclopropyl)methyl]urea]
22 | 8.00 | Cc1noc(C)c1S(=O)(=O)C1(c2cc(N3CCOC[C@@H]3C)nc(-c3ccc(NC(=O)NCCO)cc3)n2)CC1 [Example 59b, 1-[4-[4-[1-[(3,5-dimethyl-1,2-oxazol-4-yl)sulfonyl]cyclopropyl]-6-[(3S)-3-methylmorpholin-4-yl]pyrimidin-2-yl]phenyl]-3-(2-hydroxyethyl)urea]
